This note sets out measurements from US20220274967A1, “BCAT MODULATION” (Icagen, LLC, priority 2019, published 2022).

The target in one experiment is T1, BCAT1 (Homo sapiens, UniProt P54687).
T1 sequence (P54687 1-386): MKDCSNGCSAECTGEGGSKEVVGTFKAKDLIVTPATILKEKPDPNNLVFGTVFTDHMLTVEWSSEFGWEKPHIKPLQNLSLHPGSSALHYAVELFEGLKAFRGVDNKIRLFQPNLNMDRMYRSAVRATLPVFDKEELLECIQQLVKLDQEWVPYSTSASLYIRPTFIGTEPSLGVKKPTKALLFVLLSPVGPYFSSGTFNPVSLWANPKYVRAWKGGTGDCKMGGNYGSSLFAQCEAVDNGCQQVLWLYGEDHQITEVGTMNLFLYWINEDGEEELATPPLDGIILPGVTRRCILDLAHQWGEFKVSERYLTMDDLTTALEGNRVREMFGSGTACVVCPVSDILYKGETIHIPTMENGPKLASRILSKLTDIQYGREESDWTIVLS
Kind of experiment: BCAT1 enzyme inhibition (human), Glutamate Glo luminescence. It is filed as biochemical. In a few lines: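 BCAT1 enzyme (0.06 ug/ml final) was preincubated with compound (3-0.0001 μM, 0.3% DMSO) for 10 or 60 min at room temperature in 50 mM Tris/0.05% TWEEN-20. The reaction then ran 10 min with 300 μM L-leucine and 250 μM alpha-ketoglutaric acid, was acid-quenched, and glutamate was read by luminescence. IC50 came from a 4-parameter fit, normalized to 10 μM VS558CSA inhibition.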

The target in a further experiment is T2, BCAT2 (Homo sapiens, UniProt O15382).
T2 sequence (O15382 28-392): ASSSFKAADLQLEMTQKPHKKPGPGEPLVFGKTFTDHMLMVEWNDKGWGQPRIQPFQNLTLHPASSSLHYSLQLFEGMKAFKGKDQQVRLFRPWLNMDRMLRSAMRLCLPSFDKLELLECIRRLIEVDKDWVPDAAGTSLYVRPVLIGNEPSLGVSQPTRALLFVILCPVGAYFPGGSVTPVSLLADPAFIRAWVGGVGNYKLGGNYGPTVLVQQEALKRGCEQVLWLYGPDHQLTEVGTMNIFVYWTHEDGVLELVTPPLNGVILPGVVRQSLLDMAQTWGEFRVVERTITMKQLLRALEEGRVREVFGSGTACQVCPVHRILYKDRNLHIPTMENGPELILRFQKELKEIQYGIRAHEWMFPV
As to the kind of experiment: BCAT2 enzyme inhibition (human). It counts as biochemical. Summed up:
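Cell-free coupled fluorescent assay: human BCATm converts branched-chain amino acids and α-ketoglutarate to L-glutamate, which L-glutamate oxidase and HRP link to resorufin formation from Amplex Red; activity taken as reduced glutamate signal.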

Bounds are passed on as bounds.

In the case of `CNC(=O)c1ccc2c(c1)nc(-c1ccccc1C#N)n2[C@H]1CCC[C@@H](NC(=O)c2ccc(C#N)s2)C1` [Compound 139], the figures for the IC50 against BCAT1 and against BCAT2 were 100 to 500 nM and less than 100 nM, respectively.
On to `CNC(=O)c1ccc2c(c1)nc(-c1ccccc1C#N)n2[C@H]1CCC[C@@H](NC(=O)c2ccc(Br)s2)C1` [Compound 137], for which the half-inhibitory concentration (IC50) against BCAT1 and against BCAT2 was less than 100 nM throughout.
With `CNC(=O)c1cc2nc(-c3ccccc3C#N)n([C@H]3CCC[C@@H](NC(=O)c4ccc(Br)s4)C3)c2cc1F` [Compound 157], the IC50 against BCAT1 and at BCAT2 was less than 100 nM throughout.
Consider `COC(=O)c1cc2nc(-c3ccccn3)n([C@@H]3CCC[C@H](NC(=O)c4ccc(Br)s4)C3)c2cn1` [Compound 291], for which the IC50 – broadly, the concentration at which inhibition is half-maximal – was 100 to 500 nM at BCAT1 and less than 100 nM against BCAT2.
The like results for `CNC(=O)c1cc2nc(-c3ccccn3)n([C@H]3CCC[C@@H](NC(=O)c4ccc(Br)s4)C3)c2cn1` [Compound 292] were, in that order, 100 to 500 nM and less than 100 nM.
As for `CNC(=O)c1ccc2c(c1)nc(-c1ccccn1)n2[C@@H]1CCC[C@H](NC(=O)c2ccc(C#N)s2)C1` [Compound 112], the 50% inhibitory concentration (IC50) on BCAT1 is no less than 1000 nM; against BCAT2, 100 to 500 nM.
As to `CNC(=O)c1ccc2c(c1)nc(-c1ccccc1C)n2[C@H]1CCC[C@@H](NC(=O)c2ccc(C#N)s2)C1` [Compound 134], the half-maximal inhibitory concentration (IC50) on BCAT1 is no less than 1000 nM; at BCAT2 it was less than 100 nM.
The like results for `CNC(=O)c1ccc2c(c1)nc(-c1cccc(F)c1)n2[C@H]1CCC[C@@H](NC(=O)c2ccc(Br)s2)C1` [Compound 154] were, in that order, no less than 1000 nM and less than 100 nM.
On to `CNC(=O)c1ccc2c(c1)nc(-c1ccccc1F)n2[C@H]1CCC[C@@H](NC(=O)c2ccc(Br)s2)C1` [Compound 145], for which the 50% inhibitory concentration (IC50) against BCAT1 is 100 to 500 nM; against BCAT2 it was less than 100 nM.
For `COC(=O)c1ccc2c(c1)nc(-c1ccccn1)n2[C@@H]1CCC[C@H](NC(=O)c2ccc(Br)s2)C1` [Compound 109] the same measures were no less than 1000 nM and 100 to 500 nM.
With `CNC(=O)c1cc2nc(-c3ccccc3C)n([C@H]3CCC[C@@H](NC(=O)c4ccc(Br)s4)C3)c2cc1F` [Compound 208], the results for the concentration for half-maximal inhibition (IC50) at BCAT1 and against BCAT2 were 100 to 500 nM and less than 100 nM, respectively.
Consider `CNC(=O)c1ccc2c(c1)nc(-c1ccccc1C)n2[C@H]1CCC[C@@H](NC(=O)c2ccc(Br)s2)C1` [Compound 135], for which the concentration for half-maximal inhibition (IC50) against BCAT1 was no less than 1000 nM; against BCAT2 it was less than 100 nM.
The like results for `CNC(=O)c1ccc2c(c1)nc(-c1ccccc1C#N)n2[C@H]1CCC[C@@H](NC(=O)c2ccc(Br)s2)C1` [Compound 136] were, in that order, 100 to 500 nM and less than 100 nM.
As for `CNC(=O)c1ccc2c(c1)nc(-c1ccccc1C=O)n2[C@H]1CCC[C@@H](NC(=O)c2ccc(Br)s2)C1` [Compound 161], the half-inhibitory concentration (IC50) is 100 to 500 nM against BCAT1 and less than 100 nM against BCAT2.
Turning to `CNC(=O)c1ccc2c(c1)nc(-c1cccc(F)c1O)n2[C@H]1CCC[C@@H](NC(=O)c2ccc(Br)s2)C1` [Compound 163], the IC50 was no less than 1000 nM against BCAT1 and less than 100 nM against BCAT2.
For `C#Cc1ccccc1-c1nc2cc(C(=O)NC)ccc2n1[C@H]1CCC[C@@H](NC(=O)c2ccc(Br)s2)C1` [Compound 151] the same measures were 500 to 1000 nM and less than 100 nM.
For `CNC(=O)c1cc2nc(-c3ccccc3F)n([C@H]3CCC[C@@H](NC(=O)c4ccc(Br)s4)C3)c2cc1F` [Compound 207] the same measures were less than 100 nM and less than 100 nM.
For `CNC(=O)c1ccc2c(c1)nc(-c1c(O)cccc1F)n2[C@H]1CCC[C@@H](NC(=O)c2ccc(Br)s2)C1` [Compound 184] the same measures were 100 to 500 nM and less than 100 nM.
As for `CNC(=O)c1ccc2c(c1)nc(-c1ccccc1C#N)n2[C@H]1CCC[C@@H](NC(=O)c2ccc(C#N)s2)C1` [Compound 138], the IC50 on BCAT1 is 500 to 1000 nM; on BCAT2 it was less than 100 nM.
For the compound `CNC(=O)c1cc2nc(-c3ccccn3)n([C@H]3CCC[C@@H](NC(=O)c4ccc(Br)s4)C3)c2cc1F` [Compound 155], the IC50 is 100 to 500 nM against BCAT1 and less than 100 nM on BCAT2.
